Source: the CheMixHub viscosity set

Legend:
[1] = xn = mol fraction of the nth substance listed
[2] = 101 kPa

O=[N+]([O-])c1ccccc1O + Brc1ccccc1
viscosity [mPa·s], [1], 101 kPa
Details	303.15 K	308.15 K	313.15 K	318.15 K	323.15 K
x1 = 0.602	1.884	1.719	1.576	1.46	1.35
x1 = 0.8579	–	2.658	2.366	2.134	1.934

CC(=O)N(C)C + CO
viscosity [mPa·s], [1], 101 kPa
Details	303.15 K	308.15 K	313.15 K	318.15 K
x1 = 0.0976	0.572	–	–	–
x1 = 0.1993	0.626	–	–	–
x1 = 0.2967	0.673	–	–	–
x1 = 0.3971	0.712	–	–	–
x1 = 0.4998	0.75	–	–	–
x1 = 0.5962	0.78	–	–	–
x1 = 0.648	0.795	–	–	–
x1 = 0.7762	0.829	–	–	–
x1 = 0.8699	0.846	–	–	–
x2 = 0.125	0.872	0.795	0.737	0.693
x2 = 0.232	0.856	0.784	0.725	0.675
x2 = 0.324	0.832	0.763	0.709	0.655
x2 = 0.405	0.797	0.733	0.682	0.625
x2 = 0.644	0.697	0.647	0.598	0.539
x2 = 0.915	0.567	0.531	0.492	0.431
x2 = 0.939	0.544	0.507	0.471	0.413
x2 = 0.961	0.529	0.494	0.458	0.398

CC(=O)OCCC1CCCCC1
[2]
Details	viscosity [mPa·s]
300 K	2.54
310 K	2.07
320 K	1.72

NC(CO)C(=O)[O-].[K+] (configuration not stated) + O
viscosity [mPa·s], [1], 100 kPa
Details	x1 = 0.009	x1 = 0.019	x1 = 0.029	x1 = 0.039	x1 = 0.049	x1 = 0.06
303.15 K	0.9271	1.088	1.308	1.575	1.929	2.448
308.15 K	0.8325	0.9764	1.175	1.412	1.719	2.172
313.15 K	0.7628	0.8877	1.067	1.279	1.55	1.949
318.15 K	0.696	0.8049	0.9686	1.159	1.398	1.752
323.15 K	0.6347	0.74	0.8896	1.061	1.275	1.59

CC1CCCCC1=O (configuration not stated) + CNC=O
viscosity [mPa·s], [1], 100 kPa
Details	x1 = 0.0925	x1 = 0.1835	x1 = 0.2805	x1 = 0.3919	x1 = 0.4985	x1 = 0.5995	x1 = 0.6901	x1 = 0.7921	x1 = 0.8995
303.15 K	1.655	1.722	1.79	1.865	1.934	1.997	2.052	2.111	2.171
308.15 K	1.541	1.614	1.689	1.771	1.847	1.917	1.978	2.045	2.111
313.15 K	1.439	1.518	1.597	1.684	1.766	1.842	1.909	1.982	2.053

CC(=O)N(C)C + CC#N
[1], 303.15 K, 101.33 kPa
Details	viscosity [mPa·s]
x2 = 0.0996	0.8371
x2 = 0.2019	0.7966
x2 = 0.2938	0.7487
x2 = 0.3974	0.7001
x2 = 0.497	0.6422
x2 = 0.5983	0.5843
x2 = 0.7013	0.5199
x2 = 0.7983	0.4568
x2 = 0.9001	0.3878

CC1CCCCC1=O (configuration not stated) + CCCCN
[1], 303.15 K, 101.33 kPa
Details	viscosity [mPa·s]
x2 = 0.1214	1.802
x2 = 0.2017	1.906
x2 = 0.3249	1.944
x2 = 0.4512	1.826
x2 = 0.5524	1.715
x2 = 0.6849	1.417
x2 = 0.8025	1.126
x2 = 0.8938	0.855
